Source: the RepoRT retention time repository (doi:10.1016/j.aca.2019.02.001)

Experiment: RP, Agilent ZORBAX Eclipse XDB-C18, 100 × 2.1 mm, 1.8 µm, 50 °C, 0.4 mL/min, estimated dead time 0.55 min; A: water + 0.1% formic acid; B: methanol; gradient (min/%B) 0/30 2/30 5/52 15/65 20/78 22.5/78 29/90 38/100
Conditions: stereoisomer not certain

LC retention time [min]	Structure (SMILES)
17.6	NCCCCN
9.34	CC(C)C(N)C(=O)O (configuration not stated)
11.8	NC(Cc1ccccc1)C(=O)O (configuration not stated)
12.1	COc1ccc2[nH]cc(CC(=O)O)c2c1
11.8	CCCC(=O)O
5.14	NC(CO)C(=O)O (configuration not stated)
20.6	CCCCCC(C)C(=O)O (configuration not stated)
2.35	NC(Cc1cnc[nH]1)C(=O)O (configuration not stated)
6.29	CC(O)C(N)C(=O)O (configuration not stated)
24.3	CCCCCCCCCC(=O)O
7.25	O=C(O)CCCC(=O)C(=O)O
9.89	NC(Cc1c[nH]c2ccccc12)C(=O)O (configuration not stated)
34	CCCCCCCCCCCCCCCCCCCCCC(=O)O
31.5	CCCCCCCCCCCCCCCCCC(=O)O
27.3	CCCCCCCCCCCCCC(=O)O
28.7	CCCCCC=CCC=CCC=CCC=CCCCC(=O)O
13.4	O=C(O)Cc1c[nH]c2ccccc12
6.78	CC(N)C(=O)O (configuration not stated)
9.21	Nc1ccccc1C(=O)CC(N)C(=O)O (configuration not stated)
34.2	CCCCCCCCC=CCCCCCCCCCCCCCC(=O)O
24.9	CC(CCC(=O)O)C1CCC2C3C(O)CC4CC(O)CCC4(C)C3CCC12C (configuration not stated)
28.4	CCCCCCCCCCCCCCC(=O)O
28.5	CCC=CCC=CCC=CCC=CCC=CCC=CCCC(=O)O
27.9	CCCCCCC=CCCCCCCCC(=O)O
4.45	NC(=O)CCC(N)C(=O)O (configuration not stated)
14.5	CCCCC(=O)O

LC retention time [min]	Structure (SMILES)
5.85	NCC(=O)O
8.37	O=C(O)C1CCCN1 (configuration not stated)
25.6	CCCCCCCCCCCC(=O)O
11.4	CC(C)C(=O)O
3.02	NC(N)=NCCCC(N)C(=O)O (configuration not stated)
6.31	NC(CS)C(=O)O (configuration not stated)
28.8	CCCCCC=CCC=CCCCCCCCC(=O)O
15.5	O=C(O)C(=O)Cc1c[nH]c2ccccc12
9.8	NCCCCNCCCN
8.32	O=C(O)c1cccnc1C(=O)O
21.4	CCCCCCCC(=O)O
32.1	CCCCCCCCCCCCCCCCCCC(=O)O
20.2	CCCCC(CC)C(=O)O (configuration not stated)
12.2	CC(=O)NCCc1c[nH]c2ccc(O)cc12
26.2	CC(CCC(=O)O)C1CCC2C3CCC4CC(O)CCC4(C)C3CCC12C (configuration not stated)
11.4	CCC(C)C(N)C(=O)O (configuration not stated)
27.5	CCC=CCC=CCC=CCCCCCCCC(=O)O
17.1	CC(C)CCC(=O)O
9.89	O=C(O)c1cc(=O)c2cccc(O)c2[nH]1
31.8	CCCCCCCCC=CCCCCCCCCCC(=O)O
32.9	CCCCCCCCC=CCCCCCCCCCCCC(=O)O
27.5	CCC=CCC=CCC=CCC=CCC=CCCCC(=O)O
9.06	CSCCC(N)C(=O)O (configuration not stated)
24.2	CC(CCC(=O)O)C1CCC2C3C(O)CC4CC(O)CCC4(C)C3CC(O)C12C (configuration not stated)
15.7	Nc1c(O)cccc1C(=O)O
12.1	O=C(O)C(O)Cc1c[nH]c2ccccc12 (configuration not stated)

LC retention time [min]	Structure (SMILES)
19.7	CCCCCCC(=O)O
12.1	O=C(O)Cc1c[nH]c2ccc(O)cc12
17.4	O=C(O)c1cc(=O)c2ccccc2[nH]1
22.5	CCCCC(C)CCC(=O)O (configuration not stated)
11.9	COc1cc2c(CCNC(C)=O)c[nH]c2cc1O
18.9	CCCCC(C)C(=O)O (configuration not stated)
11.7	CC(C)CC(N)C(=O)O (configuration not stated)
21	Nc1c(O)cccc1C(=O)CC(N)C(=O)O (configuration not stated)
6.5	NCCCNCCCCNCCCN
23	CCCCCCCCC(=O)O
8.11	CC(=O)O
16.7	CCC(C)CC(=O)O (configuration not stated)
29.8	CCCCCCCCCCCCCCCC(=O)O
33.4	CCCCCCCCCCCCCCCCCCCCC(=O)O
26.4	CCCCCCCCCCCCC(=O)O
16.2	NCCCCC(N)C(=O)O (configuration not stated)
14	CC(C)CC(=O)O
30.5	CCCCCCCCC=CCCCCCCCC(=O)O
17.4	CCCCCC(=O)O
9.67	CCC(=O)O
3.75	NC(=O)CC(N)C(=O)O (configuration not stated)
25.2	CC(CCC(=O)O)C1CCC2C3CCC4CC(O)CCC4(C)C3CC(O)C12C (configuration not stated)
5.87	NCCO
20.5	NC(Cc1ccc(O)cc1)C(=O)O (configuration not stated)

Structure (SMILES)	LC retention time [min]
NCCc1c[nH]c2ccccc12	13.4
